According to PubChem BioAssay AID2060500 (Molecular Pharmacology Branch, DTP, NCI, 2025):
Values joined by “and” are separate entries in the source; they are usually repeats but may differ in a detail not shown here. Identical values can stand only once.

Tested on: 596521-263-R-J1-PDC complex spheroids, viability % of control
Experiment: Anticancer human tumor 596521-263-R-J1-PDC patient-derived soft tissue sarcoma cell line growth inhibition [GQUAD]
Conditions: for viability, T/C: stronger effect = lower value
Source text: DNA G-quadruplex Stabilizer Agents in Combinations in Complex Spheroids
A high-throughput screen of multi-cell type tumor spheroids was designed to identify active combinations of DNA G-quadruplex stabilizer agents and targeted small molecules. Complex spheroids include a stromal component modeled by human endothelial cells (HUVEC) and fibroblasts modeled by human mesenchymal stem cells (MSCs). The concentration ranges selected for each drug and investigational agent were based upon clinically achievable concentrations if the clinical Cmax of the agent was known.
Compounds. The drugs and investigational agents: pidnarulex (CX-5461; NSC782164), APTO-253 (NSC789042), BRACO-19 (NSC847499), peposertib (NSC802822), ceralasertib (NSC780249), elimusertib (NSC800525), camonsertib (NSC841442), AZD-1390 (NSC803789), olaparib (NSC753686), talazoparib (NSC767125), ART-558 (NSC835418), sotorasib (NSC818433), MRTX-1133 (NSC836407), SN-38 (NSC673596), topotecan (NSC609699), etoposide (NSC141540), doxorubicin (NSC123127), gemcitabine (NSC613327), 5-fluorouracil (NSC19893), paclitaxel (NSC125973), vemurafenib (NSC761431), panobinostat (NSC761190), R-306465 (JNJ-16241199; NSC773264), adavosertib (NSC754352), TP-3654 (NSC805149), carboplatin (NSC241240), KSQ-4279 (NSC840948), and staurosporine (NSC755774) were obtained from the National Cancer Institute (NCI) Developmental Therapeutics Program Chemical Repository (34). The FDA-approved anticancer drug set is available from the NCI Developmental Therapeutics Program. […] The stock solutions were prepared in dimethyl sulfoxide (DMSO, Sigma-Aldrich, St. Louis, MO, cat. D2650) at 800-fold the tested concentration and stored at -70 degrees C prior to their use. All drugs and investigational agents were tested over a range starting from a high concentration at or near the clinical Cmax and decreasing in half-log increments. If the clinical Cmax for an agent had not been determined, the highest concentration tested was 10 microM.
2.3 Cell Culture. All cells were maintained in an incubator at 37 degrees C and 5% CO2 with 95% humidity. The PDC lines were cultured according to standard operating procedures established by the NCI PDMR. All PDCs were thawed and cultured in Matrigel-coated flasks prepared with a working solution of 1X Ham's F-12 nutrient mix, without supplementation (Invitrogen, cat. 11765054), 100 U/mL penicillin-streptomycin (Invitrogen, cat. 15140122), and 2.5% Matrigel (Corning Inc., cat. 354248) for the first three passages. The 857933-349-R-J2-PDC line was cultured in 6C/Colon 1B media, which includes advanced DMEM/F-12 (Thermo Fisher Scientific, cat. 12634028), 10 mM HEPES (Thermo Fisher Scientific, cat. 15630080), 1X GlutaMAX supplement (Thermo Fisher Scientific, cat. 35050061), 0.1 mg/mL primocin (InvivoGen, cat. ant-pm-2), 10% defined fetal bovine serum, heat inactivated (HyClone Laboratories Inc., cat. SH30070.03HI), 50% L-WRN conditioned media (ATCC, cat. CRL-3276), 1.25 mM N-Acetyl-L-cysteine (Sigma-Aldrich, cat. A9165), 10 mM nicotinamide (Sigma-Aldrich, cat. N0636), 1X B-27 supplement (Thermo Fisher Scientific, cat. 17504044), 1X N-2 supplement (Thermo Fisher Scientific, cat. 17502048), 10 microM Y-27632 dihydrochloride (Tocris Bioscience, cat. 1254), and 50 ng/mL human EGF recombinant protein (Thermo Fisher Scientific, cat. PHG0311). The 485176-168-R4-J1-PDC line was cultured in Panc media, which includes all 6C/Colon 1B media components plus 100 ng/mL human FGF-10 (Thermo Fisher Scientific, cat. 100-26), 500 nM SB-431542 (Selleckchem, cat. S1067), and gastrin (Tocris, cat. 3006).
[…]

[1] = curve of first compound, second compound 0.0316 µM
[2] = curve of first compound, second compound 0.1 µM
[3] = curve of first compound, second compound 0.316 µM
[4] = curve of first compound, second compound 1 µM
[5] = curve of first compound, second compound 3.16 µM
[6] = curve of first compound, second compound 10 µM
[7] = second compound 0.0316 µM, first compound 0.0316 µM
[8] = second compound 0.0316 µM, first compound 0.316 µM
[9] = second compound 0.1 µM, first compound 0.0316 µM
[10] = second compound 0.1 µM, first compound 0.316 µM
[11] = second compound 0.316 µM, first compound 0.0316 µM
[12] = second compound 0.316 µM, first compound 0.316 µM
[13] = second compound 1 µM, first compound 0.0316 µM
[14] = second compound 1 µM, first compound 0.316 µM
[15] = second compound 3.16 µM, first compound 0.0316 µM
[16] = second compound 3.16 µM, first compound 0.316 µM
[17] = second compound 10 µM, first compound 0.0316 µM
[18] = second compound 10 µM, first compound 0.316 µM
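Further: spheroids exposed to drugs for 7 days before viability reading.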

Compound: CCc1c2c(nc3ccc(O)cc13)-c1cc3c(c(=O)n1C2)COC(=O)[C@]3(O)CC + CN(C)c1ccc(Nc2c3ccc(NC(=O)CCN4CCCC4)cc3nc3cc(NC(=O)CCN4CCCC4)ccc23)cc1
- IC50 [1]: 0.00508 µM
- IC50 [2]: 0.00406 µM
- IC50 [3]: 0.00351 µM
- IC50 [4]: 0.00744 µM
- IC50 [5]: 0.00564 µM
- IC50 [6]: 0.00375 µM
- viability, T/C (second compound 0.0316 µM, first compound 0.000999 µM): 66.2%
- viability, T/C (second compound 0.0316 µM, first compound 0.00316 µM): 54.6%
- viability, T/C (second compound 0.0316 µM, first compound 0.00999 µM): 43.2%
- viability, T/C [7]: 28.7%
- viability, T/C (second compound 0.0316 µM, first compound 0.0999 µM): 16.5%
- viability, T/C [8]: 7.38%
- viability, T/C (second compound 0.1 µM, first compound 0.000999 µM): 60.4%
- viability, T/C (second compound 0.1 µM, first compound 0.00316 µM): 51.8%
- viability, T/C (second compound 0.1 µM, first compound 0.00999 µM): 41.3%
- viability, T/C [9]: 28.5%
- viability, T/C (second compound 0.1 µM, first compound 0.0999 µM): 15.6%
- viability, T/C [10]: 9.53%
- viability, T/C (second compound 0.316 µM, first compound 0.000999 µM): 61.8%
- viability, T/C (second compound 0.316 µM, first compound 0.00316 µM): 50.7%
- viability, T/C (second compound 0.316 µM, first compound 0.00999 µM): 39.1%
- viability, T/C [11]: 28.9%
- viability, T/C (second compound 0.316 µM, first compound 0.0999 µM): 15.4%
- viability, T/C [12]: 8.17%
- viability, T/C (second compound 1 µM, first compound 0.000999 µM): 61.1%
- viability, T/C (second compound 1 µM, first compound 0.00316 µM): 57%
- viability, T/C (second compound 1 µM, first compound 0.00999 µM): 47.5%
- viability, T/C [13]: 32.3%
- viability, T/C (second compound 1 µM, first compound 0.0999 µM): 16.7%
- viability, T/C [14]: 7.43%
- viability, T/C (second compound 3.16 µM, first compound 0.000999 µM): 58.6%
- viability, T/C (second compound 3.16 µM, first compound 0.00316 µM): 54.7%
- viability, T/C (second compound 3.16 µM, first compound 0.00999 µM): 46.6%
- viability, T/C [15]: 31.1%
- viability, T/C (second compound 3.16 µM, first compound 0.0999 µM): 21.4%
- viability, T/C [16]: 9.32%
- viability, T/C (second compound 10 µM, first compound 0.000999 µM): 52.9%
- viability, T/C (second compound 10 µM, first compound 0.00316 µM): 52.7%
- viability, T/C (second compound 10 µM, first compound 0.00999 µM): 44%
- viability, T/C [17]: 32.6%
- viability, T/C (second compound 10 µM, first compound 0.0999 µM): 20.9%
- viability, T/C [18]: 9.92%

Compound: C#Cc1c(F)ccc2cc(O)cc(-c3ncc4c(N5CC6CCC(C5)N6)nc(OCC56CCCN5CC(F)C6)nc4c3F)c12 (stereo unspecified)
- viability, T/C (compound 0.0316 µM): 87.5% and 92.6% and 98.3%
- viability, T/C (compound 0.1 µM): 94.6% and 94.2% and 103%
- viability, T/C (compound 0.316 µM): 92.4% and 101% and 107%
- viability, T/C (compound 1 µM): 89.7% and 67.3% and 92.5%
- viability, T/C (compound 3.16 µM): 124% and 22.8% and 104%
- viability, T/C (compound 10 µM): 75% and 22.5% and 78.4%
- IC50 (curve of compound): > 10 µM and 1.56 µM

Compound: COc1ccc([C@@H](O)c2cc(-c3ncnc4cc(N5CCOCC5)ccc34)c(F)cc2Cl)nn1 + CN(C)c1ccc(Nc2c3ccc(NC(=O)CCN4CCCC4)cc3nc3cc(NC(=O)CCN4CCCC4)ccc23)cc1
- IC50 [1]: 7.69 µM
- IC50 [2]: 9.12 µM
- IC50 [3]: > 10 µM
- IC50 [4]: 7.49 µM
- IC50 [5]: > 10 µM
- IC50 [6]: 1.16 µM
- viability, T/C [7]: 95.1%
- viability, T/C (second compound 0.0316 µM, first compound 0.1 µM): 91.2%
- viability, T/C [8]: 97.5%
- viability, T/C (second compound 0.0316 µM, first compound 1 µM): 88.4%
- viability, T/C (second compound 0.0316 µM, first compound 3.16 µM): 67.7%
- viability, T/C (second compound 0.0316 µM, first compound 10 µM): 44.8%
- viability, T/C [9]: 89.5%
- viability, T/C (second compound 0.1 µM, first compound 0.1 µM): 101%
- viability, T/C [10]: 91.9%
- viability, T/C (second compound 0.1 µM, first compound 1 µM): 77.1%
- viability, T/C (second compound 0.1 µM, first compound 3.16 µM): 65.6%
- viability, T/C (second compound 0.1 µM, first compound 10 µM): 48.1%
- viability, T/C [11]: 96.1%
- viability, T/C (second compound 0.316 µM, first compound 0.1 µM): 94.2%
- viability, T/C [12]: 81.1%
- viability, T/C (second compound 0.316 µM, first compound 1 µM): 81.8%
- viability, T/C (second compound 0.316 µM, first compound 3.16 µM): 64.1%
- viability, T/C (second compound 0.316 µM, first compound 10 µM): 51.8%
- viability, T/C [13]: 93.8%
- viability, T/C (second compound 1 µM, first compound 0.1 µM): 84.3%
- viability, T/C [14]: 93.9%
- viability, T/C (second compound 1 µM, first compound 1 µM): 83.4%
- viability, T/C (second compound 1 µM, first compound 3.16 µM): 63.2%
- viability, T/C (second compound 1 µM, first compound 10 µM): 45.6%
- viability, T/C [15]: 87.4%
- viability, T/C (second compound 3.16 µM, first compound 0.1 µM): 87.5%
- viability, T/C [16]: 84.7%
- viability, T/C (second compound 3.16 µM, first compound 1 µM): 66.1%
- viability, T/C (second compound 3.16 µM, first compound 3.16 µM): 64.1%
- viability, T/C (second compound 3.16 µM, first compound 10 µM): 49.5%
- viability, T/C [17]: 70.5%
- viability, T/C (second compound 10 µM, first compound 0.1 µM): 56.7%
- viability, T/C [18]: 59.1%
- viability, T/C (second compound 10 µM, first compound 1 µM): 48.4%
- viability, T/C (second compound 10 µM, first compound 3.16 µM): 49.4%
- viability, T/C (second compound 10 µM, first compound 10 µM): 31.6%
